Patent US9388142B2, “Quinazolinone derivatives as PARP inhibitors” (MERCK PATENT GMBH, priority 2012, dated 2016)
Structures can show the parent of a compound that is named as a salt. Where two headings read alike, the source gives them in different places.

Assays:
[1] = target: T1, GST-tagged Tankyrase-1 (1023-1327 aa) (Homo sapiens, UniProt O95271); assay: biochemical
T1 construct: GST-tagged Tankyrase-1 (1023-1327 aa)
Source text: aq (aqueous), h (hour), g (gram), L (liter), mg (milligram), MHz (Megahertz), min. (minute), mm (millimeter), mmol (millimole), mM (millimolar), m.p. (melting point), eq (equivalent), mL (milliliter), L (microliter), ACN (acetonitrile), AcOH (acetic acid), CDCl3 (deuterated chloroform), CD3OD (deuterated methanol), CH3CN (acetonitrile), c-hex (cyclohexane), DCC (dicyclohexyl carbodiimide), DCM (dichloromethane), DIC (diisopropyl carbodiimide), DIEA (diisopropylethyl-amine), DMF (dimethylformamide), DMSO (dimethylsulfoxide), DMSO-d6 (deuterated dimethylsulfoxide), EDC (1-(3-dimethyl-amino-propyl)-3-ethylcarbodiimide), ESI (Electro-spray ionization), EtOAc (ethyl acetate), Et2O (diethyl ether), EtOH (ethanol), HATU (dimethylamino-([1,2,3]triazolo[4,5-b]pyridin-3-yloxy)-methylene]-dimethylammonium hexafluorophosphate), HPLC (High Performance Liquid Chromatography), i-PrOH (2-propanol), K2CO3 (potassium carbonate), LC (Liquid Chromatography), MeOH (methanol), MgSO4 (magnesium sulfate), MS (mass spectrometry), MTBE (Methyl tert-butyl ether), NaHCO3 (sodium bicarbonate), NaBH4 (sodium borohydride), NMM (N-methyl morpholine), NMR (Nuclear Magnetic Resonance), PyBOP (benzotriazole-1-yl-oxy-trispyrrolidino-phosphonium hexafluorophosphate), RT (room temperature), Rt (retention time), SPE (solid phase extraction), TBTU (2-(1-H-benzotriazole-1-yl)-1,1,3,3-tetramethyluromium tetrafluoro borate), TEA (triethylamine), TFA (trifluoroacetic acid), THF (tetrahydrofuran), TLC (Thin Layer Chromatography), UV (Ultraviolet). Description of the In Vitro Assays Abbreviations: GST=Glutathione-S-transferase FRET=Fluorescence resonance energy transfer HTRF®=(homogenous time resolved fluorescence) HEPES=4-(2-hydroxyethyl)-1-piperazine ethanesulfonic acid buffer DTT=Dithiothreitol BSA=bovine serum albumin CHAPS=detergent; CHAPS=3[(3-cholamidopropyl)dimethylammonio]-1-propanesulfonate Streptavidin-XLent® is a high grade streptavidin-XL665 conjugate for which the coupling conditions have been optimized to yield a conjugate with enhanced performances for some assays, particularly those requiring high sensitivity.
(§1) The autoparsylation assay is run in two steps: the enzymatic reaction in which GST-tagged Tankyrase-1, resp Tankyrase-2 transferred biotinylated ADP-ribose to itself from biotinylated NAD as co-substrate and the detection reaction where a time resolved FRET between cryptate labelled anti-GST bound to the GST tag of the enzyme and Xlent® labelled-streptavidin bound the biotin-parsylation residue is analysed. The autoparsylation activity was detectable directly via the increase in HTRF signal.
The autoparsylation assay is performed as 384-well HTRF® (Cisbio, Codolet, France) assay format in Greiner low volume nb 384-well microtiter plates and is used for high throughput screen. […] The reaction is stopped by the addition of 1 μl 50 mM EDTA solution. […] The ratio of the emission signals is determined. The full value used is the inhibitor-free reaction. […] The inhibitory values (IC50) are determined using either the program Symyx Assay Explorer® or Condosseo® from GeneData.

His-tagged Parp-1 = target: T2, His-tagged Parp-1 (Homo sapiens, UniProt P09874); assay: PARP-1 autoparsylation assay (HTRF); format: biochemical
T2 construct: purchased Enzo Life Sciences GmbH, Lörrach, Germany
Source text: Description of the PARP1 Assay
Biochemical Activity Testing of PARP-1: Autoparsylation Assay
as §1, with “His-tagged Parp-1 transfers” for “GST-tagged Tankyrase-1, resp Tankyrase-2 transferred”, “ADP-ribose/ADP-ribose” for “ADP-ribose”, “NAD/NAD” for “NAD”, “anti-His antibody” for “anti-GST”, “His” for “GST”, “is” for “was”
The autoparsylation assay is performed as 384-well HTRF® (Cisbio, Codolet, France) assay format in Greiner low volume nb 384-well microtiter plates. 35 nM His-tagged Parp-1 (human, recombinant, Enzo Life Sciences GmbH, Lörrach, Germany) and a mixture of 125 nM bio-NAD (Biolog, Life science Inst., Bremen, Germany) and 800 nM NAD as co-substrate are incubated in a total volume of 6 μl (100 mM Tris/HCl, 4 mM Mg-chloride, 0.01% IGEPAL® CA630, 1 mM DTT, 0.5% DMSO, pH 8, 13 ng/μl activated DNA (BPS Bioscience, San Diego, US)) in the absence or presence of the test compound (10 dilution concentrations) for 150 min at 23° C. The reaction is stopped by the addition of 4 μl of the Stop/detection solution (70 nM SA-Xlent® (Cisbio, Codolet, France), 2.5 nM Anti-His-K® (Eu-labelled anti-His, Cisbio, Codolet, France) in 50 mM HEPES, 400 mM KF, 0.1% BSA, 20 mM EDTA, pH 7.0). After 1 h incubation at room temperature the HTRF iss measured with an Envision multimode reader (Perkin Elmer LAS Germany GmbH) at excitation wavelength 340 nm (laser mode) and emission wavelengths 615 nm and 665 nm. The ratio of the emission signals is determined. The full value used is the inhibitor-free reaction. The pharmacological zero value used is Olaparib (LClabs, Woburn, US) in a final concentration of 1 The inhibitory values (IC50) are determined using either the program Symyx Assay Explorer® or Condosseo® from GeneData.

[2] = target: T3, GST-tagged Tnks-1 (1023-1327 aa) (Homo sapiens, UniProt O95271); assay: TNKS1 activity ELISA (autoparsylation assay); format: biochemical
T3 construct: GST-tagged Tnks-1 (1023-1327 aa, prepared in-house); made in house
Procedure: Description of the TNKS1 and TNKS2 ELISA Assay
Then the activity assay with biotinylated NAD is performed in the absence/presence of the compounds. During the enzymatic reaction GST tagged TNKS transfers biotinylated ADP-ribose to itself from biotinylated NAD as co-substrate. For the detection streptavidin-HRP conjugate is added that binds to the biotinylated TNKS and is thereby captured to the plates. The amount of biotinylated resp. autoparsylated TNKS is detected with a luminescence substrate for HRP. The level of the luminescence signal correlates directly with the amount of autoparsylated TNKS and therefore with activity of TNKS.
The activity ELISA is performed in 384 well Glutathione coated microtiter plates (Express capture Glutathione coated plate, Biocat, Heidelberg, Germany). The plates are pre-equilibrated with PBS. […] The plates are washed 3 times with PBS-Tween-20. The wells are blocked by incubation at room temperature for 20 minutes with 50 μl blocking buffer (PBS, 0.05% Tween-20, 0.5% BSA). Afterwards the plates are washed 3 times with PBS-Tween-20. […] The reaction is stopped by 3 times washing with PBS-Tween-20. For the detection 50 μl of 20 ng/μl Streptavidin, HRP conjugate (MoBiTec, Gottingen, Germany) in PBS/0.05% Tween-20/0.01% BSA are added and the plates are incubated for 30 minutes at room temperature. After three times washing with PBS-Tween-20 50 μl of SuperSignal ELISA Femto Maximum sensitivity substrate solution (ThermoFisherScientific (Pierce), Bonn, Germany) are added. Following a 1 minute incubation at room temperature luminescence signals are measured with an Envision multimode reader (Perkin Elmer LAS Germany GmbH) at 700 nm. The full value used is the inhibitor-free reaction. […] The inhibitory values (IC50) are determined using either the program Symyx Assay Explorer® or Condosseo® from GeneData.

[3] = read-out: IC50 tankyrase 1 (enzyme assay)

T3 sequence (O95271 1023-1327): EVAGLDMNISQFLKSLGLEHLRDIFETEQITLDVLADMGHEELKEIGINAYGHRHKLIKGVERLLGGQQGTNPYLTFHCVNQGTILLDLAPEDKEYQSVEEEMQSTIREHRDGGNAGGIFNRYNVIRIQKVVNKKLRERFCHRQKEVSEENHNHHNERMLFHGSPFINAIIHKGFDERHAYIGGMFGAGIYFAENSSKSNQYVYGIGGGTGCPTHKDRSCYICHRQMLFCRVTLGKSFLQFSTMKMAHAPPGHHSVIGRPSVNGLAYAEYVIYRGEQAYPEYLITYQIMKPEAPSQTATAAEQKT
T1 sequence (O95271 1023-1327): as above
T2 sequence (P09874 whole entry): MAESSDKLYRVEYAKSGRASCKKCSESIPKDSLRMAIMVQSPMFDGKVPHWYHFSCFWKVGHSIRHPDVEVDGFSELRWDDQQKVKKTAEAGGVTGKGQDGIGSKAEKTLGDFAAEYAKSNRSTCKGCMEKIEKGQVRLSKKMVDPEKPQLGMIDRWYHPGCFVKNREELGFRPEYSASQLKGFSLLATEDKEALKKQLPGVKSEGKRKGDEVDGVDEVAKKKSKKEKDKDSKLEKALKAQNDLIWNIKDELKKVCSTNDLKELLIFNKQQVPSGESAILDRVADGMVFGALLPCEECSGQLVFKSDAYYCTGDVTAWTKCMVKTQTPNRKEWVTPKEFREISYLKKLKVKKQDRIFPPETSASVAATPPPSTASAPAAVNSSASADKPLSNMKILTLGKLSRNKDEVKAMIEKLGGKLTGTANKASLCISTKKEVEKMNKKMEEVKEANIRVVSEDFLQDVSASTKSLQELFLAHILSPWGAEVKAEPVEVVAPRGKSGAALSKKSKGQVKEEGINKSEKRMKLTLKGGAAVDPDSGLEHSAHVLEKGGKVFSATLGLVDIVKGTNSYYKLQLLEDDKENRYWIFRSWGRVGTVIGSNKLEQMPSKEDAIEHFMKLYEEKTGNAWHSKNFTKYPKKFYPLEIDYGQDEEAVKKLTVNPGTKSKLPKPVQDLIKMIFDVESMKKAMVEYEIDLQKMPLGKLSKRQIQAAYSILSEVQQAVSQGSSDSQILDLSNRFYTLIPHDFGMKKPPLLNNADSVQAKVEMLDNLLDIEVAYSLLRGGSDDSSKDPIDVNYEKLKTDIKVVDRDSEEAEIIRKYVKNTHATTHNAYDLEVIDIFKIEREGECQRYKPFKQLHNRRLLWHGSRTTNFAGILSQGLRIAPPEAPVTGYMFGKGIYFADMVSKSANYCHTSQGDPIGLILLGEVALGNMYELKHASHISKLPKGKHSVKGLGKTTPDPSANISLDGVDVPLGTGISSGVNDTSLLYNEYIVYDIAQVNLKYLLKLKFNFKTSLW

SMILES | IC50 [1, 3] [µM] | IC50 (His-tagged Parp-1) [µM] | IC50 ([2]; read-out: IC50 TNKS1 ELISA) [µM] | IC50 [2] [µM] | IC50 [1] [µM]
CC(C)(O)c1ccc(-c2nc3ccc(F)cc3c(=O)[nH]2)nc1 [Compound A13, 6-fluoro-2-[5-(1-hydroxy-1-methyl-ethyl)-2-pyridyl]-3H-quinazolin-4-one] | 0.3 to 3 |  |  |  | 
Cc1cccc2c(=O)[nH]c(-c3ccc(C(C)(C)O)cc3)nc12 [Compound A24, 2-[4-(1-hydroxy-1-methyl-ethyl)-phenyl]-8-methyl-3H-quinazolin-4-one] | < 0.3 | < 0.3 | < 0.3 |  | 
Cc1cc(F)cc2c(=O)[nH]c(-c3ccc(N4CCN(C)CC4)cc3)nc12 [Compound A28, 6-fluoro-8-methyl-2-[4-(4-methyl-piperazin-1-yl)-phenyl]-3H-quinazolin-4-one] | 0.3 to 3 | < 0.3 | < 0.3 |  | 
CN1CCN(c2ccc(-c3nc4ccc(F)cc4c(=O)[nH]3)cc2)CC1 [Compound A10, 6-fluoro-2-[4-(4-methyl-piperazin-1-yl)-phenyl]-3H-quinazolin-4-one] | < 0.3 | 0.3 to 3 | < 0.3 |  | 
Cc1cc(F)cc2c(=O)[nH]c(-c3ccc(C(C)(C)OCCO)cc3)nc12 [Compound A21, 6-fluoro-2-{4-[1-(2-hydroxy-ethoxy)-1-methyl-ethyl]-phenyl}-8-methyl-3H-quinazolin-4-one] | 0.3 to 3 | 0.3 to 3 | < 0.3 |  | 
CC(C)(OCCO)c1ccc(-c2nc3ccc(F)cc3c(=O)[nH]2)cc1 [Compound A7, 6-fluoro-2-{4-[1-(2-hydroxy-ethoxy)-1-methyl-ethyl]-phenyl}-3H-quinazolin-4-one] | < 0.3 | 0.3 to 3 | < 0.3 |  | 
CC(C)(O)c1ccc(-c2nc3c(F)cc(F)cc3c(=O)[nH]2)cc1 [Compound A11, 6,8-difluoro-2-[4-(1-hydroxy-1-methyl-ethyl)phenyl]-3H-quinazolin-4-one] |  | 0.3 to 3 |  |  | 
CC(C)(O)c1ccc(-c2nc3ccc(Cl)cc3c(=O)[nH]2)cc1 [Compound A5, 6-chloro-2-[4-(1-hydroxy-1-methyl-ethyl)-phenyl]-3H-quinazolin-4-one] | < 0.3 |  | < 0.3 |  | 
COc1cccc2c(=O)[nH]c(-c3ccc(C(C)(C)O)cc3)nc12 [Compound A2, 2-[4-(1-hydroxy-1-methyl-ethyl)-phenyl]-8-methoxy-3H-quinazolin-4-one] | < 0.3 | 0.3 to 3 | < 0.3 |  | 
CC(C)(O)c1ccc(-c2nc3c(F)cccc3c(=O)[nH]2)cc1 [Compound A3, 8-fluoro-2-[4-(1-hydroxy-1-methyl-ethyl)-phenyl]-3H-quinazolin-4-one] | < 0.3 | 0.3 to 3 | < 0.3 |  | 
Cc1cc(F)cc2c(=O)[nH]c(-c3ccc(C4CCNCC4)cc3)nc12 [Compound A33, 6-fluoro-8-methyl-2-(4-piperidin-4-yl-phenyl)-3H-quinazolin-4-one hydrochloride] | < 0.3 | 0.3 to 3 |  | < 0.3 | 
CC(C)(O)c1ccc(-c2nc3ccc(F)c(F)c3c(=O)[nH]2)cc1 [Compound A12, 5,6-difluoro-2-[4-(1-hydroxy-1-methyl-ethyl)phenyl]-3H-quinazolin-4-one] | < 0.3 | 0.3 to 3 | < 0.3 |  | 
O=c1[nH]c(-c2ccc(C3CCNCC3)cc2)nc2c(F)cc(F)cc12 [Compound A34, 6,8-difluoro-2-(4-piperidin-4-yl-phenyl)-3H-quinazolin-4-one hydrochloride] |  |  |  |  | < 0.3
CC(C)(O)c1ccc(-c2nc3cccc(Cl)c3c(=O)[nH]2)cc1 [Compound A23, 5-chloro-2-[4-(1-hydroxy-1-methyl-ethyl)-phenyl]-3H-quinazolin-4-one] | 0.3 to 3 |  | < 0.3 |  | 
CC(C)(O)c1ccc(-c2nc3c(Cl)cccc3c(=O)[nH]2)cc1 [Compound A6, 8-chloro-2-[4-(1-hydroxy-1-methyl-ethyl)-phenyl]-3H-quinazolin-4-one] | < 0.3 | 0.3 to 3 | < 0.3 |  | 
CC(C)(O)c1ccc(-c2nc3ccc(F)cc3c(=O)[nH]2)cc1 [Compound A1, 6-fluoro-2-[4-(1-hydroxy-1-methyl-ethyl)-phenyl]-3H-quinazolin-4-one] | < 0.3 | 0.3 to 3 | < 0.3 |  | 
Cc1cc(F)cc2c(=O)[nH]c(-c3ccc(C(C)(C)O)cc3)nc12 [Compound A25, 6-fluoro-2-[4-(1-hydroxy-1-methyl-ethyl)-phenyl]-8-methyl-3H-quinazolin-4-one] | < 0.3 | < 0.3 | < 0.3 |  | 
COCCOC(C)(C)c1ccc(-c2nc3ccc(F)cc3c(=O)[nH]2)cc1 [Compound A8, 6-fluoro-2-{4-[1-(2-methoxy-ethoxy)-1-methyl-ethyl]-phenyl}-3H-quinazolin-4-one] | 0.3 to 3 | 3 to 50 | < 0.3 |  | 
CC(C)(O)c1ccc(-c2nc3c(F)ccc(F)c3c(=O)[nH]2)cc1 [Compound A27, 5,8-difluoro-2-[4-(1-hydroxy-1-methyl-ethyl)-phenyl]-3H-quinazolin-4-one] | < 0.3 |  |  |  | 
